Source: patent US20160296499A1, “Spiroindoline Antiparasitic Derivatives” (ZOETIS SERVICES LLC, priority 2013, published 2016)
Read-outs that look alike come from different tables or passages of the source.

Legend:
[1] = test system: Haemonchus contortus L3; assay: Haemonchus contortus, Larvae Stage 3 (HcL3) In Vitro Assay; conditions: Haemonchus contortus
[2] = test system: Dirofilaria immitis microfilariae; assay: Dirofilaria immitis, Microfilariae (DiMF) In Vitro Assay; conditions: Dirofilaria immitis
[3] = biological target: T1, bovine vesicular acetylcholine transporter (VAChT) (Bos taurus, UniProt E1BK36); assay: Radioligand Binding Assay; conditions: Bovine binding Ki, CHO-K1 membranes with recombinant bovine VAChT, [3H]Compound X6 0.3 nM
T1 sequence (E1BK36 1-524): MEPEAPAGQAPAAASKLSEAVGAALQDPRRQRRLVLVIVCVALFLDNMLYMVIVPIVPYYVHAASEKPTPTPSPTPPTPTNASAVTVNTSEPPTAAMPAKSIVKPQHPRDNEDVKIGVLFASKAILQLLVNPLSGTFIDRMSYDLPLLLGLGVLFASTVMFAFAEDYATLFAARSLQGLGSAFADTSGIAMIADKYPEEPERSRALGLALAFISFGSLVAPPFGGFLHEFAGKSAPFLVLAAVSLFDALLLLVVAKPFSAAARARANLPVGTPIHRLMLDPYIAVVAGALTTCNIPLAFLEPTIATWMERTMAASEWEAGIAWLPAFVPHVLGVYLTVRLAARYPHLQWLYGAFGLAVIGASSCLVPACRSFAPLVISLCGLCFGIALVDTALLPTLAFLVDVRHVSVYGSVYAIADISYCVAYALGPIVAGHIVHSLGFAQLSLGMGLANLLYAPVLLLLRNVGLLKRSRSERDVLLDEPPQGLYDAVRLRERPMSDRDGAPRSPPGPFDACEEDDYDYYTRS

[4] = 96 h, read-out: HcL3 MEC, Minimal Effective Concentration whereby worm motility is inhibited by approximately 70%, 37° C., tested 0.001-100 μM
[5] = 72 h, read-out: Di MF, MEC, decrease in microfilariae motility by visual assessment, curve starting at 100 μM
[6] = 96 hours, 37° C., read-out: HcL3 MEC

Structure (SMILES): N#Cc1c(F)ccc2c1C1(CCN(C/C=C/c3ccc(Cl)cc3)CC1)CN2C(=O)NCc1ccnc(Cl)c1 [Example 166, (E)-1′-(3-(4-chlorophenyl)allyl)-N-((2-chloropyridin-4-yl)methyl)-4-cyano-5-fluorospiro[indoline-3,4′-piperidine]-1-carboxamide]
- minimal effective concentration [1, 4]: 23.5 µM
- minimal effective concentration [2, 5]: 1.5 µM
- Ki [3]: 43.5 nM

Structure (SMILES): CS(=O)(=O)c1ccc2c(c1)C1(CCN(C/C=C/c3ccc(Cl)cc3)CC1)CN2C(=O)NCc1ccnc(Cl)c1 [Example 79, (E)-1′-(3-(4-chlorophenyl)allyl)-N-((2-chloropyridin-4-yl)methyl)-5-(methylsulfonyl)spiro[indoline-3,4′-piperidine]-1-carboxamide]
- minimal effective concentration [1, 4]: 100 µM
- minimal effective concentration [2, 5]: 10 µM
- Ki [3]: 11300 nM

Structure (SMILES): O=C(NCc1ccc(Cl)cc1)N1CC2(CCN(C/C=C/c3ccc(Cl)c(Cl)c3)CC2)c2c1ccc1scnc21 [Example 20, (E)-N-(4-chlorobenzyl)-1-(3-(3,4-dichlorophenyl)allyl)spiro[piperidine-4,8′-thiazolo[4,5-e]indole]-6′(7′H)-carboxamide]
- minimal effective concentration [1, 4]: 100 µM
- minimal effective concentration [2, 5]: 13.5 µM
- Ki [3]: 2120 nM

Structure (SMILES): O=C(NCc1cnc(Cl)s1)N1CC2(CCN(C/C=C/c3ccc(Cl)c(Cl)c3)CC2)c2c1ccc1scnc21 [Example 21, (E)-N-((2-chlorothiazol-5-yl)methyl)-1-(3-(3,4-dichlorophenyl)allyl)spiro[piperidine-4,8′-thiazolo[4,5-e]indole]-6′(7′H)-carboxamide]
- minimal effective concentration [1, 6]: 69.1 µM
- minimal effective concentration ([2]; 72 hours, read-out: Di MF): 10 µM
- Ki [3]: 105 nM

Structure (SMILES): O=C(NCc1ccnc(Cl)c1)N1CC2(CCN(C/C=C/c3ccc(Cl)cc3)CC2)c2c(F)cc(C(F)(F)F)cc21 [Example 122, (E)-1′-(3-(4-chlorophenyl)allyl)-N-((2-chloropyridin-4-yl)methyl)-4-fluoro-6-(trifluoromethyl)spiro[indoline-3,4′-piperidine]-1-carboxamide]
- minimal effective concentration [1, 6]: 0.5 µM
- minimal effective concentration ([2]; 72 hours, read-out: Di MF): 10 µM
- Ki [3]: 32.3 nM

Structure (SMILES): O=C(NCc1ccnc(F)c1)N1CC2(CCN(C/C=C/c3ccc(Cl)cc3)CC2)c2cc(Cl)c(F)cc21 [Example 71, (E)-5-chloro-1′-(3-(4-chlorophenyl)allyl)-6-fluoro-N-((2-fluoropyridin-4-yl)methyl)spiro[indoline-3,4′-piperidine]-1-carboxamide]
- minimal effective concentration [1, 4]: 3.3 µM
- minimal effective concentration [2, 5]: 3.3 µM
- Ki [3]: 31.4 nM

Structure (SMILES): O=C(NCc1cnc(Cl)s1)N1CC2(CCN(C/C=C/c3ccc(Cl)cc3)CC2)c2c(OC(F)(F)F)ccc(Cl)c21 [Example 57, (E)-7-chloro-1′-(3-(4-chlorophenyl)allyl)-N-((2-chlorothiazol-5-yl)methyl)-4-(trifluoromethoxy)spiro[indoline-3,4′-piperidine]-1-carboxamide]
- minimal effective concentration [1, 4]: 70 µM
- minimal effective concentration [2, 5]: 4 µM
- Ki [3]: 954 nM

Structure (SMILES): Cc1c(F)ccc2c1C1(CCN(C/C=C/c3ccc(Cl)cc3)CC1)CN2C(=O)NCc1ccnc(Cl)c1 [Example 155, (E)-1′-(3-(4-chlorophenyl)allyl)-N-((2-chloropyridin-4-yl)methyl)-5-fluoro-4-methylspiro[indoline-3,4′-piperidine]-1-carboxamide]
- minimal effective concentration [1, 4]: 7.3 µM
- minimal effective concentration [2, 5]: 3.3 µM
- Ki [3]: 74.8 nM

Structure (SMILES): N#Cc1ccc(/C=C/CN2CCC3(CC2)CN(C(=O)NCc2ccnc(Cl)c2)c2c(F)ccc(C(F)(F)F)c23)cc1 [Example 98, (E)-N-((2-chloropyridin-4-yl)methyl)-1′-(3-(4-cyanophenyl)allyl)-7-fluoro-4-(trifluoromethyl)spiro[indoline-3,4′-piperidine]-1-carboxamide]
- minimal effective concentration [1, 4]: 100 µM
- minimal effective concentration [2, 5]: 10 µM
- Ki [3]: 1570 nM

Structure (SMILES): N#Cc1ccc(/C=C/CN2CCC3(CC2)CN(C(=O)NCc2ccnc(Cl)c2)c2ccc([N+](=O)[O-])cc23)cc1 [Example 97, (E)-N-((2-chloropyridin-4-yl)methyl)-1′-(3-(4-cyanophenyl)allyl)-5-nitrospiro[indoline-3,4′-piperidine]-1-carboxamide]
- minimal effective concentration [1, 4]: 33 µM
- minimal effective concentration [2, 5]: 5.7 µM
- Ki [3]: 63.7 nM

Structure (SMILES): Cc1nc2c3c(ccc2s1)N(C(=O)NCc1ccnc(Cl)c1)CC31CCN(C/C=C/c2ccc(C(F)(F)F)cn2)CC1 [Example 45, (E)-N-((2-chloropyridin-4-yl)methyl)-2′-methyl-1-(3-(5-(trifluoromethyl)pyridin-2-yl)allyl)spiro[piperidine-4,8′-thiazolo[4,5-e]indole]-6′(7′H)-carboxamide]
- minimal effective concentration [1, 4]: > 100 µM
- minimal effective concentration [2, 5]: 33 µM
- Ki [3]: 3220 nM

Structure (SMILES): O=C(NCc1nccs1)N1CC2(CCN(C/C=C/c3ccc(Cl)c(Cl)c3)CC2)c2c1ccc1scnc21 [Example 23, (E)-1-(3-(3,4-dichlorophenyl)allyl)-N-(thiazol-2-ylmethyl)spiro[piperidine-4,8′-thiazolo[4,5-e]indole]-6′(7′H)-carboxamide]
- minimal effective concentration [1, 4]: 100 µM
- minimal effective concentration [2, 5]: 10 µM
- Ki [3]: 205 nM

Structure (SMILES): O=C(NCc1ccnnc1)N1CC2(CCN(C/C=C/c3ccc(Cl)c(Cl)c3)CC2)c2c1ccc1scnc21 [Example 37, (E)-1-(3-(3,4-dichlorophenyl)allyl)-N-(pyridazin-4-ylmethyl)spiro[piperidine-4,8′-thiazolo[4,5-e]indole]-6′(7′H)-carboxamide]
- minimal effective concentration [1, 4]: 100 µM
- minimal effective concentration [2, 5]: 6.9 µM
- Ki [3]: 1210 nM

Structure (SMILES): O=C(NCc1ccnc(F)c1)N1CC2(CCN(C/C=C/c3ccc(Cl)cc3)CC2)c2cc(F)c(Cl)cc21 [Example 69, (E)-6-chloro-1′-(3-(4-chlorophenyl)allyl)-5-fluoro-N-((2-fluoropyridin-4-yl)methyl)spiro[indoline-3,4′-piperidine]-1-carboxamide]
- minimal effective concentration [1, 4]: 2.5 µM
- minimal effective concentration [2, 5]: 6.5 µM
- Ki [3]: 55.2 nM

Structure (SMILES): Cn1ncc2c3c(ccc21)N(C(=O)NCc1ccnc(Cl)c1)CC31CCN(C/C=C/c2ccc(C(F)(F)F)cn2)CC1 [Example 53, (E)-N-((2-chloropyridin-4-yl)methyl)-3′-methyl-1-(3-(5-(trifluoromethyl)pyridin-2-yl)allyl)-3′H-spiro[piperidine-4,8′-pyrrolo[3,2-e]indazole]-6′(7′H)-carboxamide]
- minimal effective concentration [1, 4]: > 100 µM
- minimal effective concentration [2, 5]: 33 µM
- Ki [3]: 1930 nM

Structure (SMILES): O=C(NCc1ccnc(F)c1)N1CC2(CCN(C/C=C/c3ccc(Cl)c(Cl)c3)CC2)c2cc(-c3cn[nH]c3)ccc21 [Example 111, 1′-[(E)-3-(3,4-dichlorophenyl)allyl]-N-[(2-fluoro-4-pyridyl)methyl]-5-(1H-pyrazol-4-yl)spiro[indoline-3,4′-piperidine]-1-carboxamide]
- minimal effective concentration [1, 4]: 100 µM
- minimal effective concentration [2, 5]: 10 µM
- Ki [3]: 3380 nM

Structure (SMILES): O=C(NCC1CC1)N1CC2(CCN(C/C=C/c3ccc(Cl)c(Cl)c3)CC2)c2c1ccc1scnc21 [Example 32, (E)-N-(cyclopropylmethyl)-1-(3-(3,4-dichlorophenyl)allyl)spiro[piperidine-4,8′-thiazolo[4,5-e]indole]-6′(7′H)-carboxamide]
- minimal effective concentration [1, 4]: 100 µM
- minimal effective concentration [2, 5]: 3.3 µM
- Ki [3]: 136 nM

Structure (SMILES): O=C(NCc1ccnc(F)c1)N1CC2(CCN(C/C=C/c3ccc(Cl)cc3)CC2)c2c(OC(F)(F)F)ccc(Cl)c21 [Example 148, (E)-7-chloro-1′-(3-(4-chlorophenyl)allyl)-N-((2-fluoropyridin-4-yl)methyl)-4-(trifluoromethoxy)spiro[indoline-3,4′-piperidine]-1-carboxamide]
- minimal effective concentration [1, 4]: 100 µM
- minimal effective concentration [2, 5]: 3.3 µM
- Ki [3]: 2480 nM

Structure (SMILES): O=C(NCc1ccnc(Cl)c1)N1CC2(CCN(C/C=C/c3ccc(C(F)(F)F)cn3)CC2)c2ccc(C(F)(F)F)cc21 [Example 124, (E)-N-((2-chloropyridin-4-yl)methyl)-6-(trifluoromethyl)-1′-(3-(5-(trifluoromethyl)pyridin-2-yl)allyl)spiro[indoline-3,4′-piperidine]-1-carboxamide]
- minimal effective concentration [1, 4]: 1 µM
- minimal effective concentration [2, 5]: 10 µM
- Ki [3]: 106 nM

Structure (SMILES): O=C(NCc1ccnc(Cl)c1)N1CC2(CCN(C/C=C/c3ccc(F)cc3)CC2)c2c(OC(F)(F)F)ccc(Cl)c21 [Example 58, (E)-7-chloro-N-((2-chloropyridin-4-yl)methyl)-1′-(3-(4-fluorophenyl)allyl)-4-(trifluoromethoxy)spiro[indoline-3,4′-piperidine]-1-carboxamide]
- minimal effective concentration [1, 4]: 100 µM
- minimal effective concentration [2, 5]: 10 µM
- Ki [3]: 1360 nM

Structure (SMILES): O=C(NCc1ccnc(F)c1)N1CC2(CCN(C/C=C/c3ccc(F)cc3)CC2)c2cc(Br)ccc21 [Example 106, 5-bromo-1′-[(E)-3-(4-fluorophenyl)allyl]-N-[(2-fluoro-4-pyridyl)methyl]spiro[indoline-3,4′-piperidine]-1-carboxamide]
- minimal effective concentration [1, 4]: 3.3 µM
- minimal effective concentration [2, 5]: 10 µM
- Ki [3]: 72.7 nM
